Article PMC8151276, “An Integrated Approach toward NanoBRET Tracers for Analysis of GPCR Ligand Engagement” (Molecules, 2021)

Experiments:
[1] = target: T1, ADCYAP1R1 (Homo sapiens, UniProt P41586); experiment: NanoBRET screen HiBiT-ADCYAP1R1 in HEK293; format: binding
T1 construct: purchased Promega (in-house HiBiT-GPCR construct library, NanoBRET)
T1 sequence (P41586 21-468): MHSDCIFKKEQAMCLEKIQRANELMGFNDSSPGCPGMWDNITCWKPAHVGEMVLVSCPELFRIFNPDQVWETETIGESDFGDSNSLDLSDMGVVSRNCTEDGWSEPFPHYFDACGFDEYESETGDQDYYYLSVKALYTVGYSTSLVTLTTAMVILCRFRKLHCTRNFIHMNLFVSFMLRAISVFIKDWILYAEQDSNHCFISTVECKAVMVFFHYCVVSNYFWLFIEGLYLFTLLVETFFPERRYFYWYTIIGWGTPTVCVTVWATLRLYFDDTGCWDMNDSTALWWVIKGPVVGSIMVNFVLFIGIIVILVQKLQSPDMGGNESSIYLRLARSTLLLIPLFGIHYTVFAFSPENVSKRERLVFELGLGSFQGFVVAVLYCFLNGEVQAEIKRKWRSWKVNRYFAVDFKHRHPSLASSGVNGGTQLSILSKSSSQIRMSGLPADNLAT
Description: (§1) Each tracer candidate was screened across the entire library of HiBiT-GPCR constructs using NanoBRET as the detection modality. As depicted in Figure 4A, the specificity of interactions was evaluated through decrease in BRET due to competitive displacement of a bound tracer by excess parental compound. Each tracer was analyzed for binding to each HiBiT-GPCR fusion in the absence and in the presence of competing parental compound. Briefly, HEK293 cells were transfected with HiBiT-GPCR constructs diluted into promoterless DNA to reduce expression and maximize translocation to the cell surface. Each tracer candidate was then screened at concentrations of 1 μM and 0.1 μM across cells expressing these fusions. Cells were treated for 1.5 h with tracer either alone or in the presence of 20 μM competing parental compound (i.e., control). BRET was measured upon addition of purified LgBiT and subsequent complementation with HiBiT genetically fused to a GPCR. The specificity of interactions was assessed through a decrease in BRET signal due to competitive displacement of the bound tracer. To further gauge the robustness of these interactions, the fold response over the control (i.e., BRETtracer/BRETcontrol) was calculated. We chose a 1.5-fold response, which translates to ≥7-fold signal over noise as the minimal threshold required to score an interaction as positive.
(§2) HiBiT-GPCR DNA constructs were diluted in 10 mM Tris pH 8 to a final concentration of 0.01 μg/μL, arrayed in 96-well plates and stored at −20 °C. For transfection, HEK293 cells were suspended in Opti-MEM (without phenol red) supplemented with 2% fetal bovine serum (Seradigm) and 100 units/mL penicillin–streptomycin (Gibco) at a final concentration of 220,000 cells/mL and dispensed into white 96-well plates at 90 μL/well. Subsequent transfections and screens were carried using an Agilent Bravo Automated Liquid Handling Platform. First, the 96-well HiBiT DNA arrays were diluted 25-fold in Opti-MEM (without serum or phenol red) to a final concentration of 0.0004 μg/μL and 20 μL of the diluted DNAs were transferred into new 96-well plates. Next, promoterless carrier DNA (1 μg/μL) was diluted 25-fold (0.04 μg/μL) and then dispensed into the diluted arrays at 20 μL/well. Following brief mixing, Viafect transfection reagent (Promega) diluted 16-fold into Opti-MEM was dispensed into the plates at 40 μL/well. After mixing by pipetting, plates were incubated for 10 min on the pipetting station deck. The DNA-transfection reagent complexes were then added to plates containing cells. To facilitate the screen, 10 μL of DNA-transfection reagent complexes were added in duplicates to the top 4 and bottom 4 rows, resulting in two identical 48-well arrays per plate. Plates with transfected cells were incubated for 18–20 h at 37 °C/5% CO2. A screen of each tracer across the entire library using two different concentrations requires duplicate plates of transfected cells. Depending on the number of tracers being screened, transfections can be scaled up using the same ratios. The next day, for each tracer, four 20× screening solutions in tracer dilution buffer (Promega) were prepared: two duplicates at final concentration of 20 μM and two duplicates at a final concentration of 2 μM. […] The four resulting solutions were diluted 4-fold in Opti-MEM without serum or phenol red to generate 5× solutions (5 µM and 0.5 µM tracer +/− 100 μM competing compound). To screen the library, a BioTek MultiFlo FX liquid dispenser was used to dispense 22.5 µL of tracer solution to the top 4 rows and 22.5 µL tracer + competing compound solution to the 4 bottom rows. Plates were briefly mixed on an orbital shaker and incubated for 1.5 h at room temperature. […] Plates were briefly mixed on an orbital shaker and incubated for 15 min to allow complementation.

[2] = target: T2, MC2R (Homo sapiens, UniProt Q01718); experiment: NanoBRET screen HiBiT-MC2R in HEK293; format: binding
T2 construct: purchased Promega (in-house HiBiT-GPCR construct library, NanoBRET)
T2 sequence (Q01718 whole entry): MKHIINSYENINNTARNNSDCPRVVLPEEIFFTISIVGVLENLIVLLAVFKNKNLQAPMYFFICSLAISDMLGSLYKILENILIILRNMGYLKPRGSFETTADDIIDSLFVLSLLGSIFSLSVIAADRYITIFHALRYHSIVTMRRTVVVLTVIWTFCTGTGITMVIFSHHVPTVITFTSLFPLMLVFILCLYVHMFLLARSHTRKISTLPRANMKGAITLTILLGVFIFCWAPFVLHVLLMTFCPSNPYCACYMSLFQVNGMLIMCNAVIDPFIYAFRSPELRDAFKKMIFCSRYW
Description: as §1, §2

Row | Compound | NanoBRET Fold Response ([1]; ADCYAP1R1, tracer 0.1μM) | NanoBRET Fold Response ([1]; ADCYAP1R1, tracer 1μM) | NanoBRET Fold Response ([2]; MC2R, tracer 0.1μM) | NanoBRET Fold Response ([2]; MC2R, tracer 1μM) | other results
1 | CCOC(=O)c1cc(C#N)c(N2CCC(C(=O)NS(=O)(=O)Cc3ccccc3/C=C/C(=O)NCCNC(=O)CCc3ccc4n3[B-](F)(F)[N+]3=C(c5ccc[nH]5)C=CC3=C4)CC2)nc1C [AZD1283-1-NB590] | – | – | – | – | NanoBRET Fold Response ([1]; ADCYAP1R1, 0.1μM): 0.93; NanoBRET Fold Response ([1]; ADCYAP1R1, 1μM): 0.96; NanoBRET Fold Response ([2]; MC2R, 0.1μM): 0.94; NanoBRET Fold Response ([2]; MC2R, 1μM): 1.02
2 | N#CN=C(NCCCOc1cccc(CN2CCCCC2)c1)NCCNC(=O)CCOCCOCCOCCOCCNC(=O)CCc1ccc2n1[B-](F)(F)[N+]1=C(c3ccc[nH]3)C=CC1=C2 [Aminopotentidine-2-NB590] | 1.00 | 1.01 | 0.97 | 0.92 | –
3 | CN(C)CCC=C1c2ccccc2CCc2ccc(C(=O)NCCNC(=O)CCOCCOCCOCCOCCNC(=O)CCc3ccc4n3[B-](F)(F)[N+]3=C(c5ccc[nH]5)C=CC3=C4)cc21 [Amitriptyline-b-2-NB590] | 0.99 | 0.99 | – | – | NanoBRET Fold Response ([2]; tracer at 0.1μM): 1.00; NanoBRET Fold Response ([2]; tracer at 1μM): 1.02
4 | COc1ccc2c(n1)c(CCNC(C)=O)cn2CCNC(=O)CCc1ccc2n1[B-](F)(F)[N+]1=C(c3ccc[nH]3)C=CC1=C2 [Azamelatonin-1-NB590] | – | – | – | – | NanoBRET Fold Response ([1]; 0.1μM tracer): 0.76; NanoBRET Fold Response ([1]; 1μM tracer): 0.54; NanoBRET Fold Response ([2]; 0.1μM tracer): 0.89; NanoBRET Fold Response ([2]; 1μM tracer): 1.03
5 | COc1ccc2[nH]c(-c3ccc(CNC(=O)CCOCCOCCOCCOCCNC(=O)CCc4ccc5n4[B-](F)(F)[N+]4=C(c6ccc[nH]6)C=CC4=C5)cc3)c(CCNC(C)=O)c2n1 [AzomelatoninICO9-2-NB590] | – | – | – | – | NanoBRET Fold Response ([1]; 0.1μM tracer): 1.08; NanoBRET Fold Response ([1]; 1μM tracer): 0.91; NanoBRET Fold Response ([2]; 0.1μM tracer): 0.93; NanoBRET Fold Response ([2]; 1μM tracer): 1.16
6 | O=C(CCOCCOCCOCCOCCNC(=O)CCc1ccc2n1[B-](F)(F)[N+]1=C(c3ccc[nH]3)C=CC1=C2)NCCCN1CCN(C2=Nc3cc(Cl)ccc3Nc3ccccc32)CC1 [Clozapine-a-2-NB590] | – | – | – | – | NanoBRET Fold Response ([1]; ADCYAP1R1, 0.1μM tracer): 1.00; NanoBRET Fold Response ([1]; ADCYAP1R1, 1μM tracer): 1.06; NanoBRET Fold Response ([2]; MC2R, 0.1μM tracer): 0.97; NanoBRET Fold Response ([2]; MC2R, 1μM tracer): 0.97
7 | CN1CCN(C2=Nc3cc(Cl)ccc3Nc3ccc(CNC(=O)CCOCCOCCOCCOCCNC(=O)CCc4ccc5n4[B-](F)(F)[N+]4=C(c6ccc[nH]6)C=CC4=C5)cc32)CC1 [Clozapine-b-2-NB590] | – | – | – | – | NanoBRET Fold Response ([1]; ADCYAP1R1, 0.1μM tracer): 1.04; NanoBRET Fold Response ([1]; ADCYAP1R1, 1μM tracer): 1.09; NanoBRET Fold Response ([2]; MC2R, 0.1μM tracer): 1.02; NanoBRET Fold Response ([2]; MC2R, 1μM tracer): 1.00
8 | CN1CCN(C2=Nc3cc(Cl)ccc3N(CC(=O)NCCOCCOCCOCCOCCNC(=O)CCc3ccc4n3[B-](F)(F)[N+]3=C(c5ccc[nH]5)C=CC3=C4)c3ccccc32)CC1 [Clozapine-c-2-NB590] | – | – | – | – | NanoBRET Fold Response ([1]; ADCYAP1R1, 0.1μM tracer): 0.97; NanoBRET Fold Response ([1]; ADCYAP1R1, 1μM tracer): 1.07; NanoBRET Fold Response ([2]; MC2R, 0.1μM tracer): 0.99; NanoBRET Fold Response ([2]; MC2R, 1μM tracer): 1.11
9 | O=C(CCOCCOCCOCCOCCNC(=O)CCc1ccc2n1[B-](F)(F)[N+]1=C(c3ccc[nH]3)C=CC1=C2)NCCCN1CCN(C2=Nc3ccccc3Oc3ccc(Cl)cc32)CC1 [Loxapine-a-2-NB590] | 1.03 | 1.20 | 0.99 | 1.11 | –
10 | COc1ccccc1N1CCN(CCCCN2C(=O)c3ccc(CNC(=O)CCOCCOCCOCCOCCNC(=O)CCc4ccc5n4[B-](F)(F)[N+]4=C(c6ccc[nH]6)C=CC4=C5)cc3C2=O)CC1 [NAN-190-2-NB590] | 1.08 | 1.04 | 0.96 | – | –
11 | COc1ccccc1N1CCN(CCCCN2C(=O)c3ccc(CNC(=O)CCOCCNC(=O)c4ccc(CNC(=O)CCc5ccc6n5[B-](F)(F)[N+]5=C(c7ccc[nH]7)C=CC5=C6)cc4)cc3C2=O)CC1 [NAN-190-3-NB590] | 1.25 | 1.00 | 1.02 | 0.96 | –
12 | O=C(CCc1ccc2n1[B-](F)(F)[N+]1=C(c3ccc[nH]3)C=CC1=C2)NCc1ccc(C(=O)NCCOCCC(=O)N[C@@H]2CC[C@@]3(O)[C@H]4Cc5ccc(O)c6c5[C@@]3(CCN4CC3CC3)[C@H]2O6)cc1 [Naltrexone-3-NB590] | 0.88 | 0.98 | 0.75 | 1.15 | –
13 | Cc1cc2c(s1)Nc1ccccc1N=C2N1CCN(CCCNC(=O)CCOCCOCCOCCOCCNC(=O)CCc2ccc3n2[B-](F)(F)[N+]2=C(c4ccc[nH]4)C=CC2=C3)CC1 [Olanzapine-a-2-NB590] | 1.02 | 1.01 | 0.98 | 1.21 | –
14 | O=C(CCc1ccc2n1[B-](F)(F)[N+]1=C(c3ccc[nH]3)C=CC1=C2)NCc1ccc(C(=O)NCCOCCOCCNCC(O)COc2cccc3ccccc23)cc1 (centres unmarked) [Propranolol-3-NB590] | – | – | – | – | NanoBRET Fold Response ([1]; ADCYAP1R1, 0.1μM): 1.00; NanoBRET Fold Response ([1]; ADCYAP1R1, 1μM): 0.97; NanoBRET Fold Response ([2]; MC2R, 1μM): 1.03
15 | O=C(CCc1ccc2n1[B-](F)(F)[N+]1=C(c3ccc[nH]3)C=CC1=C2)NCCOCCOCCNC(=O)OCCOCCN1CCN(C2=Nc3ccccc3Sc3ccccc32)CC1 [Quetiapine-a-2-NB590] | 1.03 | 1.11 | 0.98 | 0.95 | –
16 | Cc1nc2n(c(=O)c1CCN1CCC(c3noc4cc(F)ccc34)CC1)CCCC2OC(=O)NCCOCCOCCOCCOCCNC(=O)CCc1ccc2n1[B-](F)(F)[N+]1=C(c3ccc[nH]3)C=CC1=C2 (centres unmarked) [Risperidone-2-NB590] | 0.99 | 1.02 | 1.04 | 1.06 | –
17 | CC(C)N(CC[C@H](c1ccccc1)c1cc(CCNC(=O)CCOCCOCCOCCOCCNC(=O)CCc2ccc3n2[B-](F)(F)[N+]2=C(c4ccc[nH]4)C=CC2=C3)ccc1O)C(C)C [Tolterodine-2-NB590] | 0.68 | 0.93 | 1.08 | 1.10 | –
18 | CC(C)N(CC[C@H](c1ccccc1)c1cc(CCNC(=O)c2ccc(CNC(=O)CCc3ccc4n3[B-](F)(F)[N+]3=C(c5ccc[nH]5)C=CC3=C4)cc2)ccc1O)C(C)C [Tolterodine-BZ-NB590] | 1.04 | 1.00 | 0.88 | 1.06 | –
19 | CCCn1c(=O)c2[nH]c(-c3ccc(OCC(=O)NCCNC(=O)CCOCCNC(=O)c4ccc(CNC(=O)CCc5ccc6n5[B-](F)(F)[N+]5=C(c7ccc[nH]7)C=CC5=C6)cc4)cc3)nc2n(CCC)c1=O [XAC-3-NB590] | 0.98 | 0.97 | 1.02 | 1.05 | –
